Here are results for 10 molecules from PMC6325109, “The transcription factor STAT5 catalyzes Mannich ligation reactions yielding inhibitors of leukemic cell proliferation” (Nature Communications, 2019).

In test [1] the target is T1, MBP-STAT5b-SH2 (Homo sapiens, UniProt P51692, N642A).
T1 sequence (P51692 589-686 N642A limits assumed): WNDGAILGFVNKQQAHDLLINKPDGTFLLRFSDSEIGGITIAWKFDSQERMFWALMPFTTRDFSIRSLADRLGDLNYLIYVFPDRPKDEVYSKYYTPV
Nature of the test: fluorescence polarization competition with peptide […]. The test is classed as binding. Conditions: […] MOPS pH […], room temperature; competitive. In general terms: Polarisation of emitted light reports the rotation of a fluorescent probe.

In test [2] the target is T2, MBP-STAT5b-SH2 (Homo sapiens, UniProt P51692).
T2 sequence (P51692 589-686 limits assumed): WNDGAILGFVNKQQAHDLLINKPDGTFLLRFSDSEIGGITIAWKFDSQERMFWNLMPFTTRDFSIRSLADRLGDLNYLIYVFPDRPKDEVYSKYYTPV
Described as above. The test is classed as binding. Conditions: […] MOPS pH […], room temperature; competitive.

Test [3] concerns the target T2, MBP-STAT5b-SH2. Put plainly: biochemical. Also on record: fluorescence polarization competition with carboxyfluorescein-labelled phosphopeptide on MBP-STAT5b-SH2. On the procedure:
24 sealed with optical seal, shaken for 15 min, and centrifuged. Thermal scanning (20 to 95°C at 1°C/min) was performed using a real-time PCR setup (Light Cycler, Roche Diagnostics, Mannheim, Germany) and fluorescence intensity was measured after every 0.3 s. Curve fitting, melting temperature calculation and report generation on the raw data were performed using GraphPad Prism 5 software. Fluorescence polarization assays and screening Ca. 17000 compounds and fragments from the ChemBioNet library were tested in a fluorescence polarization (FP) assay to investigate their ability to bind to STAT5b-SH2 domain by displacing the fluorophore-labeled peptide 5-carboxyfluorescein-GY (PO3H2) LSLPPW-NH2 1. Purified compounds were tested in the same assay. The peptide purity was >95% and the assays were performed at room temperature. The final concentration of buffer components used was 10 mM HEPES (pH 7.5), 1 mM EDTA, 0.1% Igepal CA-630, 50 mM NaCl, and 5% DMSO and the final concentration of protein used was at 125 nM. The protein was first added to the black 384-well plate (Corning cat.CLS3676, Sigma Aldrich, Taufkirchen, Germany) followed by test compounds and fluorophore-labeled peptide. The plates were centrifuged, and measured using Safire2 well plate reader (Tecan, Crailsheim, Germany) after 15 min incubation at room temperature. For testing secondary site binding of primary hit fragments, the same assay was conducted in the presence of 4-formylphenyl phosphate 2 as described earlier. For specificity analysis, FP assay was conducted with 100 nM GST-tagged, full length human STAT3 protein (cat. S54-54G-50, SignalChem, Richmond, BC, Canada) and 10 nM fluorophore-labeled peptides (5-carboxyfluorescein-GY (PO3H2) LPQTV-NH2). […] Ligands with such high ligand efficiency are rather found for enzymatic binding pockets than for protein–protein interaction sites and thus fragment 3 was selected for further validation. Binding of 3 to STAT5b-SH2 was confirmed using the thermofluor assay[28],[29], a thermal shift assay (TSA), as an independent biophysical assay. Binding of fragment 3 augmented the melting point of STAT5 by ΔTm of 3 °C (Supplementary Figure 1). Potential binding modes of the phosphotyrosine 2 and the fragment hit 3 were scrutinized using a homology model of STAT5b derived from the crystal structure of STAT5a (PDB:1Y1U [10.2210/pdb1Y1U/pdb]) for molecular docking (Fig. 1b, c)[30]. The phosphotyrosine binding site in the STAT5-SH2 domain is shallow compared with the deeper binding pockets of PTP[31],[32], coordinating phenyl phosphate 2 by only two amino-acid residues, Arg618 and Ser622. As a result, the benzene ring of 2 is not buried in a cavity like in the case of PTPs but rather exposed to the solvent at the protein surface.

Test [4] has as its target T2, MBP-STAT5b-SH2. Nature of the test: fluorescence polarization competition with peptide […]. The format is binding. Particulars: […] MOPS pH […], room temperature; competitive. The source holds these as a separate data set.
The target of a further test is T3, MBP-STAT5b-SH2 N642A (human, UniProt P51692 589-686, N642A).
T3 construct: STAT5b, SH2 domain with N642A; Same construct as m1 apart from the mutation; also called STAT5b-N642A; mutant STAT5b-N642A; source: generated by site-directed mutagenesis
T3 sequence (looked up): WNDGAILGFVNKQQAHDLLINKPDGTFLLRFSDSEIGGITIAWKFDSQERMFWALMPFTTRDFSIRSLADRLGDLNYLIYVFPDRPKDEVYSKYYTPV
Nature of the test: fluorescence polarisation; MBP-STAT5b-SH2 with peptide 1 (10 nM), 50 mM MOPS buffer pH 7.4, room temperature, 20 µl. Conditions: both partners purified.

Test [5] concerns the target T4, STAT5b-SH2 domain fused to maltose-binding protein (MBP) (human, UniProt P51692 589-686).
T4 construct: STAT5b, SH2 domain; also called MBP-STAT5b-SH2; MBP-STAT5b; source: recombinantly expressed
T4 sequence (looked up): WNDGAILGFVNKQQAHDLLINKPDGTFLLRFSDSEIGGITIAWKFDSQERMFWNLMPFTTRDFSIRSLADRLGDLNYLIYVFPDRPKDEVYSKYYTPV
The test is described as above. Particulars: both partners purified.

Where no end group is shown, it is not given here. [ ]: non-standard residue; d: D form. pY = N[C@@H](Cc1ccc(OP(=O)(O)O)cc1)C(=O)O

Usually IC50 stands for the concentration that gives 50% inhibition. Take `O=C(O)c1nonc1NCn1cnnn1` [compound 10, 4-(Tetrazolyl-1-methylamino)-furazan-3-carboxylic acid]: the half-inhibitory concentration (IC50) stood at 30 µM on MBP-STAT5b-SH2 [1] and 1.5 µM at MBP-STAT5b-SH2 [2]. As usually defined, the Ki is a dissociation constant, usually derived from enzyme kinetics or from competition with a known ligand. A low value points to higher affinity. On MBP-STAT5b-SH2 [3], `O=Cc1ccc(OP(=O)(O)O)cc1` [compound 2, 4-formylphenyl phosphate] displayed a Ki of more than 2500 µM. Regarding `O=C(O)c1nonc1NCn1cccn1` [compound 8, pyrazol-1-yl 8], at MBP-STAT5b-SH2 [4], the Ki worked out at 122 ± 25 µM. Molecule `O=C(O)c1nonc1NCn1nnnc1-c1cccc(C(F)(F)F)c1` [compound 12, 5-(3-trifluoromethyl-phenyl)-12] registered an inhibition constant (Ki) at MBP-STAT5b-SH2 [4] of 0.9 µM. The molecule `O=C(O)c1nonc1NCn1nnnc1-c1cccc(F)c1` [compound 13, 5-(3-fluorophenyl) 13] registered a Ki on MBP-STAT5b-SH2 [4] of 0.6 µM. Consider `O=C(O)c1nonc1NCn1nnnc1-c1ccccc1` [compound 11, 4-(5-phenyl-tetrazol-1-yl-methylamino)-furazane-3-carboxylate], for which the inhibitory constant (Ki) at MBP-STAT5b-SH2 [4] came to 1.4 µM. `O=C(Cn1cnnn1)Nc1nonc1C(=O)O` [compound 5, 4-(2-(1H-tetrazol-1-yl)-acetamido)-1,2,5-oxadiazole-3-carboxylic acid]: the inhibition constant Ki at MBP-STAT5b-SH2 [3] was more than 2500 µM.

For the molecule `c1ccc(Cc2nn[nH]n2)cc1` [compound 26, benzyl-tetrazole], the Ki on MBP-STAT5b-SH2 [3] was more than 2500 µM.

For the molecule `c1nnn[nH]1` [compound 25, 1H-tetrazole], at MBP-STAT5b-SH2 [3], the inhibition constant (Ki) is more than 2500 µM.

B1: carboxyfluoresceine-labeled phosphotyrosine octapeptide 1 (peptide)
chain: G[pY]LSLPPW
modifications: not fully specified (N-terminus); also: carboxyfluorescein label, place not given here
As a reminder, the Kd is the free concentration of one partner at which half of the binding sites on the other are occupied at equilibrium, for simple one-to-one binding. Regarding B1, the Kd in the test with MBP-STAT5b-SH2 N642A is approximately 5 µM; in test [5], 0.055 µM.
